The values that follow come from patent US9321776B2, “Isochromene derivatives as phoshoinositide 3-kinases inhibitors” (CHIESI FARMACEUTICI S.p.A., priority 2013, dated 2016).

The structures appear in SMILES notation. Structures can show the parent of a compound that is named as a salt. Bounds are passed on as bounds.

The target in one assay is T1, PI3Kγ (Homo sapiens, UniProt P48736).
T1 construct: purchased Millipore Ltd (Billerica, Mass.)
As to the kind of experiment: PI3K enzyme inhibitory activity in the cell free assay (ADP-Glo Kinase Assay). In kind it is biochemical. As to conditions: human recombinant PI3Kγ, ATP 30 μM; read-out: PI3K gamma inhibition. For orientation: In ADP-Glo the light output rises with the ADP produced.

For a further assay, the target named is T2, PI3Kδ (Homo sapiens, UniProt O00329).
T2 construct: purchased Millipore Ltd (Billerica, Mass.)
T2 sequence (O00329 1-1044): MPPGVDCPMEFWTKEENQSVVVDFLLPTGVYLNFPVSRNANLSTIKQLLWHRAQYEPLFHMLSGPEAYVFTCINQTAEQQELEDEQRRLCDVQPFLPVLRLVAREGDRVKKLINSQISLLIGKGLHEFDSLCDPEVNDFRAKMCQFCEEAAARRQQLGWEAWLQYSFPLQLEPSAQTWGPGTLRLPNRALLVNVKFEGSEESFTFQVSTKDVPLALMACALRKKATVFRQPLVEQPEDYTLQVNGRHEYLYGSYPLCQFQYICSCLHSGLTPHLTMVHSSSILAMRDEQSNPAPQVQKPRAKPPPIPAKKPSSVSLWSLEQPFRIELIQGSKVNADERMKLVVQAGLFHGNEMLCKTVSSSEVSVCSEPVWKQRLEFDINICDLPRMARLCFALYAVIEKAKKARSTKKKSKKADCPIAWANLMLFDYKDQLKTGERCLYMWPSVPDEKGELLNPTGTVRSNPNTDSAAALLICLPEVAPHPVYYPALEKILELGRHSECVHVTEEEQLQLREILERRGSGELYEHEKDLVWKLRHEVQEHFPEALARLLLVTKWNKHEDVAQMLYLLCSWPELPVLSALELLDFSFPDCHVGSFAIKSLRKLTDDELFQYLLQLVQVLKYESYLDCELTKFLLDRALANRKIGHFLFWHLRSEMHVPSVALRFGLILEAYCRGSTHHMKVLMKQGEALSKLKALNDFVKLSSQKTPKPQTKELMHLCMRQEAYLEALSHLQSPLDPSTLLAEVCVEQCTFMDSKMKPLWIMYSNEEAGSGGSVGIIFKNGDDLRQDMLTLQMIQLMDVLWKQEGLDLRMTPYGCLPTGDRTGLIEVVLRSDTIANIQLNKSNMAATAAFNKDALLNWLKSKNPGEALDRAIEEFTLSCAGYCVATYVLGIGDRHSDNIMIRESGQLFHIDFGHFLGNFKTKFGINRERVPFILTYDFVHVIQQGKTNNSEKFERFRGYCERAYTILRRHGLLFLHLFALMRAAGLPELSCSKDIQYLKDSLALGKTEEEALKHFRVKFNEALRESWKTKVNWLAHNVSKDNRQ
The assay is described as above. As to conditions: human recombinant PI3Kδ, ATP 80 μM; read-out: PI3K delta inhibition. In kind it is biochemical.

T1 sequence (P48736 whole entry): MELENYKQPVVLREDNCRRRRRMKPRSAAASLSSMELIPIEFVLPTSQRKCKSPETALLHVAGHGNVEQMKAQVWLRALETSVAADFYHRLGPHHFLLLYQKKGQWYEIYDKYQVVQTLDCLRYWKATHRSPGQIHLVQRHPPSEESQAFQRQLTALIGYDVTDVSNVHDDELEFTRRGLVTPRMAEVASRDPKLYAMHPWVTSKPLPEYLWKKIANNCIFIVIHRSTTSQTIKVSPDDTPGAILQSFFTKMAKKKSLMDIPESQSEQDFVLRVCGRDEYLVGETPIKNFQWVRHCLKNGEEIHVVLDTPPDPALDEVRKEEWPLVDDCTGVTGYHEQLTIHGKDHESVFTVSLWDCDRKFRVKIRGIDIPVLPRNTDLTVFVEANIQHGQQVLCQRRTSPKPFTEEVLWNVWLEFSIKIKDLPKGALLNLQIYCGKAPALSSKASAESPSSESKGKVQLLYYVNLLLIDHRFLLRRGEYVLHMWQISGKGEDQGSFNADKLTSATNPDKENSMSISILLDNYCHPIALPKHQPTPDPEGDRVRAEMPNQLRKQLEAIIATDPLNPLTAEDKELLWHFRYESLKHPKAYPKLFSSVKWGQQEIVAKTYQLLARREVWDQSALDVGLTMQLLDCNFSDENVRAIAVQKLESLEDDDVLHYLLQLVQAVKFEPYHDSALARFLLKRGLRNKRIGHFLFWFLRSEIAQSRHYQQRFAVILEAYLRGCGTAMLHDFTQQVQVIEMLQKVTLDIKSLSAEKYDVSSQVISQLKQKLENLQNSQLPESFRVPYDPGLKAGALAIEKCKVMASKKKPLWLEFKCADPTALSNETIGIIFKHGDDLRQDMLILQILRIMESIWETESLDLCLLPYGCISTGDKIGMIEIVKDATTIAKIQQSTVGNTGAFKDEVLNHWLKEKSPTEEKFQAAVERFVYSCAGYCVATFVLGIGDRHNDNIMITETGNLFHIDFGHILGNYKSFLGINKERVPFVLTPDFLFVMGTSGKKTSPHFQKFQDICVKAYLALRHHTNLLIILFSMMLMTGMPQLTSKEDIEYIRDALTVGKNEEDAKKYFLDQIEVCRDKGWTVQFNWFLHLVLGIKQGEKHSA

Turning to `CC(Sc1ncnc2[nH]cnc12)c1oc(=O)c2ccccc2c1-c1cccc(F)c1` (centres unmarked) [Example 14, 3-(1-(9H-Purin-6-ylthio)ethyl)-4-(3-fluorophenyl)-1H-isochromen-1-one], the values for the IC50 at PI3Kγ and at PI3Kδ were > 1000 nM and 10 to 1000 nM, respectively.
In the case of `CC(c1oc(=O)c2ccccc2c1-c1cccc(S(=O)(=O)N2CCOCC2)c1)n1ncc2c(N)ncnc21` (centres unmarked) [Example 16, 3-(1-(4-Amino-1H-pyrazolo[3,4-d]pyrimidin-1-yl)ethyl)-4-(3-(morpholinosulfonyl)phenyl)-1H-isochromen-1-one], the IC50 on PI3Kγ and at PI3Kδ was 10 to 1000 nM each time.
As to `O=c1oc(CNc2ncnc3[nH]cnc23)c(-c2cccc(F)c2)c2ccccc12` [Example 21, 3-((9H-Purin-6-ylamino)methyl)-4-(3-fluorophenyl)-1H-isochromen-1-one], the IC50 at PI3Kγ and on PI3Kδ was 10 to 1000 nM each time.
As to `CC(Nc1ncnc2[nH]cnc12)c1oc(=O)c2ccccc2c1-c1ccc(OCCN2CCOCC2)cc1` (centres unmarked) [Example 26, 3-(1-(9H-Purin-6-ylamino)ethyl)-4-(4-(2-morpholinoethoxy)phenyl)-1H-isochromen-1-one formate], the IC50 on PI3Kγ and on PI3Kδ was 10 to 1000 nM each time.
Turning to `Cc1cccc(-c2c(CNc3ncnc4[nH]cnc34)oc(=O)c3ccccc23)c1` [Example 31, 3-((9H-Purin-6-ylamino)methyl)-4-m-tolyl-1H-isochromen-1-one], the IC50 on PI3Kγ and at PI3Kδ was 10 to 1000 nM each time.
`CC(Nc1ncnc2[nH]cnc12)c1oc(=O)c2ccccc2c1-c1cccc(F)c1` (centres unmarked) [Example 32, 3-(1-(9H-purin-6-ylamino)ethyl)-4-(3-fluorophenyl)-1H-isochromen-1-one]: the IC50 on PI3Kγ is 10 to 1000 nM; on PI3Kδ, < 10 nM.
Turning to `Cc1cccc(-c2c(C(C)Nc3ncnc4[nH]cnc34)oc(=O)c3ccccc23)c1` (centres unmarked) [Example 33, 3-(1-(9H-Purin-6-ylamino)ethyl)-4-m-tolyl-1H-isochromen-1-one], the IC50 on PI3Kγ is 10 to 1000 nM; at PI3Kδ, < 10 nM.
For `Cc1n[nH]c2ccc(-c3nn(Cc4oc(=O)c5ccccc5c4-c4ccccc4)c4ncnc(N)c34)cc12` [Example 37, 3-((4-Amino-3-(3-methyl-1H-indazol-5-yl)-1H-pyrazolo[3,4-d]pyrimidin-1-yl)methyl)-4-phenyl-1H-isochromen-1-one], the results for the IC50 at PI3Kγ and on PI3Kδ were > 1000 nM and 10 to 1000 nM, respectively.
The corresponding values for `CC(Nc1ncnc2[nH]ncc12)c1oc(=O)c2ccccc2c1-c1ccccc1` (centres unmarked) [Example 43, 3-(1-(1H-pyrazolo[3,4-d]pyrimidin-4-ylamino)ethyl)-4-phenyl-1H-isochromen-1-one] are > 1000 nM and 10 to 1000 nM.
In the case of `CC(c1oc(=O)c2ccccc2c1-c1ccc(CN2CCOCC2)cc1)n1nc(-c2cc(O)cc(F)c2)c2c(N)ncnc21` (centres unmarked) [Example 48, 3-(1-(4-amino-3-(3-fluoro-5-hydroxyphenyl)-1H-pyrazolo[3,4-d]pyrimidin-1-yl)ethyl)-4-(4-(morpholinomethyl)phenyl)-1H-isochromen-1-one hydrochloride], the figures for the IC50 on PI3Kγ and on PI3Kδ were 10 to 1000 nM and < 10 nM, respectively.
`CC(c1oc(=O)c2ccccc2c1-c1ccccc1)n1nc(-c2ccnnc2)c2c(N)ncnc21` (centres unmarked) [Example 53, 3-(1-(4-amino-3-(pyridazin-4-yl)-1H-pyrazolo[3,4-d]pyrimidin-1-yl)ethyl)-4-phenyl-1H-isochromen-1-one]: the IC50 at PI3Kγ is > 1000 nM; on PI3Kδ, 10 to 1000 nM.
`CC(c1oc(=O)c2ccccc2c1-c1ccccc1)n1nc(-c2ccncc2)c2c(N)ncnc21` (centres unmarked) [Example 54, 3-(1-(4-amino-3-(pyridin-4-yl)-1H-pyrazolo[3,4-d]pyrimidin-1-yl)ethyl)-4-phenyl-1H-isochromen-1-one]: the IC50 on PI3Kγ and on PI3Kδ was 10 to 1000 nM throughout.
As to `COc1ncc(-c2nn(C(C)c3oc(=O)c4ccccc4c3-c3ccccc3)c3ncnc(N)c23)cn1` (centres unmarked) [Example 55, 3-(1-(4-amino-3-(2-methoxypyrimidin-5-yl)-1H-pyrazolo[3,4-d]pyrimidin-1-yl)ethyl)-4-phenyl-1H-isochromen-1-one], the IC50 on PI3Kγ was 10 to 1000 nM; on PI3Kδ, < 10 nM.
The corresponding values for `COc1cncc(-c2nn(C(C)c3oc(=O)c4ccccc4c3-c3ccccc3)c3ncnc(N)c23)c1` (centres unmarked) [Example 57, 3-(1-(4-amino-3-(5-methoxypyridin-3-yl)-1H-pyrazolo[3,4-d]pyrimidin-1-yl)ethyl)-4-phenyl-1H-isochromen-1-one] are 10 to 1000 nM and 10 to 1000 nM.
On to `CC(Nc1ncnc2ccsc12)c1oc(=O)c2ccccc2c1-c1ccc(CN2CCOCC2)s1` (centres unmarked) [Example 81, 4-(5-(morpholinomethyl)thiophen-2-yl)-3-(1-(thieno[3,2-d]pyrimidin-4-ylamino)ethyl)-1H-isochromen-1-one hydrochloride], for which the IC50 is > 1000 nM at PI3Kγ and 10 to 1000 nM at PI3Kδ.
In the case of `CC(Nc1ncnn2cccc12)c1oc(=O)c2ccccc2c1-c1ccccc1` (centres unmarked) [Example 83, 4-phenyl-3-(1-(pyrrolo[2,1-f][1,2,4]triazin-4-ylamino)ethyl)-1H-isochromen-1-one], the IC50 at PI3Kγ was > 1000 nM; at PI3Kδ, 10 to 1000 nM.
As for `CC(Nc1ncnc2cccnc12)c1oc(=O)c2ccccc2c1-c1ccccc1` (centres unmarked) [Example 84, 4-phenyl-3-(1-(pyrido[3,2-d]pyrimidin-4-ylamino)ethyl)-1H-isochromen-1-one], the IC50 at PI3Kγ and on PI3Kδ was 10 to 1000 nM throughout.
With `CC(c1oc(=O)c2ccccc2c1-c1ccccc1)n1nc(-c2cncc(CO)c2)c2c(N)ncnc21` (centres unmarked) [Example 85, 3-(1-(4-amino-3-(5-(hydroxymethyl)pyridin-3-yl)-1H-pyrazolo[3,4-d]pyrimidin-1-yl)ethyl)-4-phenyl-1H-isochromen-1-one], the IC50 on PI3Kγ and on PI3Kδ was 10 to 1000 nM throughout.
As for `CC(c1oc(=O)c2ccccc2c1-c1ccccc1)n1nc(-c2ccc(CO)nc2)c2c(N)ncnc21` (centres unmarked) [Example 86, 3-(1-(4-amino-3-(6-(hydroxymethyl)pyridin-3-yl)-1H-pyrazolo[3,4-d]pyrimidin-1-yl)ethyl)-4-phenyl-1H-isochromen-1-one], the IC50 is 10 to 1000 nM at PI3Kγ and < 10 nM on PI3Kδ.
On to `CC(c1oc(=O)c2ccccc2c1-c1ccccc1)n1nc(-c2ccnc(N)n2)c2c(N)ncnc21` (centres unmarked) [Example 89, 3-(1-(4-amino-3-(2-aminopyrimidin-4-yl)-1H-pyrazolo[3,4-d]pyrimidin-1-yl)ethyl)-4-phenyl-1H-isochromen-1-one hydrochloride], for which the IC50 on PI3Kγ was 10 to 1000 nM; on PI3Kδ it was > 1000 nM.
In the case of `CC(C)Oc1ccc(-c2nn(C(C)c3oc(=O)c4ccccc4c3-c3ccccc3)c3ncnc(N)c23)cc1F` (centres unmarked) [Example 93, 3-(1-(4-amino-3-(3-fluoro-4-isopropoxyphenyl)-1H-pyrazolo[3,4-d]pyrimidin-1-yl)ethyl)-4-phenyl-1H-isochromen-1-one], the IC50 on PI3Kγ and on PI3Kδ was 10 to 1000 nM each time.
Turning to `CC(c1oc(=O)c2ccccc2c1-c1ccccc1)n1nc(-c2cncc(F)c2)c2c(N)ncnc21` (centres unmarked) [Example 94, 3-(1-(4-amino-3-(5-fluoropyridin-3-yl)-1H-pyrazolo[3,4-d]pyrimidin-1-yl)ethyl)-4-phenyl-1H-isochromen-1-one], the IC50 on PI3Kγ and on PI3Kδ was 10 to 1000 nM each time.
